Data reported in patent US20240246920A1, “TRIAZOLE DERIVATIVES WITH ANTIFUNGAL ACTIVITY” (King's College London, priority 2020, published 2024).
Values after ≈ are worked out from the molar mass of the structure shown.

Tests used:
C. auris 8971 = assay: Candida panel MIC, serial dilution in 96-well plates; type: cell-based, Candida auris; details: Candidozyma auris, 8971, read-out: MIC C. auris 8971
Method: (§1) The minimum inhibitory concentration of test compounds were determined in a panel of Candida species (see Table 4 below), using the a serial dilution method in 96-well plates using the following protocol.
(§2) Starter cultures of fungal strains to be tested were grown in 3 mL of RPMI 2% glucose media incubated at 37° C. with shaking at 200 rpm overnight. The culture media used was 900 mL H2O; 10.4 g RPMI 1640 (with L-glutamine and a pH indicator but without bicarbonate); 34.5 g MOPS and 18 g glucose. The pH of the media was adjusted to 7.0 with 1 M sodium hydroxide.
(§3) Solutions of the compound to be tested were prepared by dissolving the compound in DMSO and subsequently into media to the desired concentrations. […] The last two rows of each plate were control rows containing the culture media alone and the media plus fungi.
(§4) The fungi starter cultures were diluted 1:10 in water in cuvettes. This was then further diluted to an optical density (OD600) of 0.01 in media. 100 μL of the fungi was added to each well giving a starting concentration of fungus of 0.5-5×10^5/mL. One species of fungus was used on each plate. The plates were then held at 37° C. for 24 hours.
(§5) A plate reader was used to measure growth in each well at OD530 nm and the MIC was determined for each test compound. The MIC is defined as the lowest concentration giving rise to inhibition of ≥50% of that of the drug-free control well containing the fungus and media.
(§6) The Candida auris strains shown in Table 7 were either taken from the National Collection of Pathogenic Fungi (NCPF) or collected as part of ongoing surveillance studies. The strains were characterised as follows.

C. auris 8984 = assay: as above; type: cell-based, Candida auris; details: Candidozyma auris, 8984, read-out: MIC C. auris 8984
Method: as §1, §2, §3, §4, §5, §6

C. auris 8977 = assay: as above; type: cell-based, Candida auris; details: Candidozyma auris, 8977, read-out: MIC C. auris 8977
Method: as §1, §2, §3, §4, §5, §6

Candida auris TDG2506 = assay: microbe, parasite or virus in culture; type: cell-based; details: Candidozyma auris, TDG2506, read-out: MIC C. auris 2506
Method: as §1, §2, §3, §4, §5, §6

Candida auris TDG2211 = assay: microbe, parasite or virus in culture; type: cell-based; details: Candidozyma auris, TDG2211, read-out: MIC C. auris 2211
Method: as §1, §2, §3, §4, §5, §6

| Structure (SMILES) | MIC (C. auris 8971) | MIC (C. auris 8984) | MIC (C. auris 8977) | MIC (Candida auris TDG2506) | MIC (Candida auris TDG2211) |
| --- | --- | --- | --- | --- | --- |
| OC(CN1CCC(Nc2ccc(OCCN3CCOCC3)cc2)CC1)(Cn1cncn1)c1ccc(F)cc1F (stereo not drawn) [Compound number 6, 2-(2,4-Difluorophenyl)-1-(4-((4-(2-morpholinoethoxy)phenyl)amino)piperidin-1-yl)-3-(1H-1,2,4-triazol-1-yl)propan-2-ol] | 0.03 µg/mL (≈ 0.0553 µM) | 0.125 µg/mL (≈ 0.23 µM) | 0.06 µg/mL (≈ 0.111 µM) | 0.25 µg/mL (≈ 0.461 µM) | 0.25 µg/mL (≈ 0.461 µM) |
| OC(CN1CCC(Nc2ccc(Cc3ccccc3)cc2)CC1)(Cn1cncn1)c1ccc(F)cc1F (stereo not drawn) [Compound number 11, 1-(4-((4-benzylphenyl)amino)piperidin-1-yl)-2-(2,4-difluorophenyl)-3-(1H-1,2,4-triazol-1-yl)propan-2-ol] | ≤ 0.125 µg/mL | 0.125 µg/mL (≈ 0.248 µM) | ≤ 0.125 µg/mL | 0.125 µg/mL (≈ 0.248 µM) | ≤ 0.125 µg/mL |
| OC(CN1CCC(N2CCC(Nc3ccc(Cc4ccccc4)cc3)CC2)CC1)(Cn1cncn1)c1ccc(F)cc1F (stereo not drawn) [Compound number 12, 1-(4-((4-benzylphenyl)amino)-[1,4′-bipiperidin]-1′-yl)-2-(2,4-difluorophenyl)-3-(1H-1,2,4-triazol-1-yl)propan-2-ol] | ≤ 0.125 µg/mL | ≤ 0.125 µg/mL | ≤ 0.125 µg/mL | ≤ 0.125 µg/mL | ≤ 0.125 µg/mL |
| OC(CN1CCC2(CCC(Nc3ccc(Cc4ccccc4)cc3)CC2)C1)(Cn1cncn1)c1ccc(F)cc1F (stereo not drawn) [Compound number 13, 1-(8-((4-benzylphenyl)amino)-2-azaspiro[4.5]decan-2-yl)-2-(2,4-difluorophenyl)-3-(1H-1,2,4-triazol-1-yl)propan-2-ol] | ≤ 0.125 µg/mL | ≤ 0.003 µg/mL | ≤ 0.125 µg/mL | ≤ 0.125 µg/mL | ≤ 0.125 µg/mL |
| OC(CN1CCC2(CCC(Nc3ccc(OCCN4CCOCC4)cc3)CC2)C1)(Cn1cncn1)c1ccc(F)cc1F (stereo not drawn) [Compound number 87, 2-(2,4-difluorophenyl)-1-(8-((4-(2-morpholinoethoxy)phenyl)amino)-2-azaspiro[4.5]decan-2-yl)-3-(1H-1,2,4-triazol-1-yl)propan-2-ol] | 0.25 µg/mL (≈ 0.419 µM) | 0.25 µg/mL (≈ 0.419 µM) | 0.25 µg/mL (≈ 0.419 µM) | 0.125 µg/mL (≈ 0.209 µM) | 0.125 µg/mL (≈ 0.209 µM) |
| OC(CN1CCC(Nc2ccc(OCc3ccccc3)cc2)CC1)(Cn1cncn1)c1ccc(F)cc1F (stereo not drawn) [Compound number 90, 1-(4-((4-(benzyloxy)phenyl)amino)piperidin-1-yl)-2-(2,4-difluorophenyl)-3-(1H-1,2,4-triazol-1-yl)propan-2-ol] | ≤ 0.003 µg/mL | ≤ 0.003 µg/mL | ≤ 0.003 µg/mL | ≤ 0.003 µg/mL | ≤ 0.003 µg/mL |
